Converted amounts (≈) assume the structure as drawn. Like-named read-outs stand apart in the source and are kept apart here. Non-standard residues stand in square brackets, D forms with d. Residues, ends and D or L forms follow the SMILES beside them. Orn = NCCC[C@H](N)C(=O)O; Dab = NCC[C@H](N)C(=O)O
Legend:
[1] = test system: P. aeruginosa PAO1 GFP; assay: MBEC, biofilm eradication, GFP fluorescence method; assay type: cell-based, Pseudomonas aeruginosa
Experimental: (§1) Figure 1 The MIC (A), MBIC (B) and MBEC (C) values for the tritrpticin analog peptides were assessed against Pa PAO1 GFP. The MIC values were determined by measuring the absorbance of bacterial cells at 600 nm. The MBIC and MBEC values were determined by recording the fluorescence at 480 nm and 530 nm from the biofilms of GFP-expressing PAO1. Three biological replicates were run for each test sample, and the mean was calculated for the recorded absorption or fluorescence values. In the graphs, the error bars represent the standard deviation (±SD).
(§2) Figure 2 The MIC (A), MBIC (B) and MBEC (C) values for the tritrpticin-Lys derivative peptides were assessed against Pa PAO1 GFP. The MIC values were determined by measuring the absorbance of bacterial cells at 600 nm. The MBIC and MBEC values were determined by recording the fluorescence at 480 nm and 530 nm from the biofilms of GFP-expressing PAO1. Three replicates were run for each sample, the values were averaged and the error bars represent the standard deviation (±SD).
(§3) The methods to determine the MIC, MBIC and MBEC have been described in detail in our previous publication. The green fluorescent protein (GFP)-producing P. aeruginosa and S. aureus strains that were used in this work were also described in the earlier publication. Fluorescence detection was used as the main method to estimate the number of cells entrapped in the biofilm matrix. The methodology used for evaluation of the antibiofilm properties against an original Pseudomonas PA01 strain by crystal violet dye staining and the use of the Calgary biofilm device has been described elsewhere. The regular PA01 strain was provided by Dr. J. Harrison, Calgary. All measurements were carried out on an Eppendorf AF2200 plate reader. Every 96-well plate included controls for bacterial cell growth without peptide treatment and media alone. All measurements were carried out in triplicate, and the values in the figures represent the average and the error bars are standard deviation.

[2] = test system: P. aeruginosa PAO1; assay type: cell-based
Experimental: (§4) We note the close agreement with the MBIC and MBEC values determined by the fluorescence and CV methods, similar to what we found in our previous work for an S. aureus MRSA strain [23]. We also re-evaluated the MBEC values that are measured using the Calgary biofilm device (CBD), where biofilms form on pegs, rather than at the bottom of the 96-well plates. […] In particular, we find that the single Pro9Ala Tritrp-P9A-substituted version has better MIC, MBIC and MBEC activities than the parent peptide as well as the Tritrp-P59A analog with both prolines substituted to Ala.
(§5) Figure 4 The MIC (A), MBIC (B) and MBRC (C) values for the peptides were assessed against P. aeruginosa PAO1 in the presence of 1× BM2. The inhibition of planktonic cells, the inhibition of biofilm cells and the reduction in biofilm cells were determined for the peptides by recording of the planktonic cells at 600 nm and quantification of biofilms formed by Pa PAO1 using crystal violet at 595 nm, respectively. Three biological replicates were run for each test sample, and the mean was calculated for the recorded absorption values. Data points with error bars indicate the standard deviation (±SD).
(§6) Figure 6 The MIC (A), MBIC (B) and MBEC (C) values for the tritrpticin-Lys derivatives against P. aeruginosa PAO1 were assessed by the crystal violet (CV) assay for the measurement of inhibition of biofilm formation and eradication of biofilm cells, respectively. The biofilm cells were rinsed, stained with 0.1% crystal violet for 15 min and then rinsed again. The CV was released from biofilm cells by the addition of 95% ethanol and quantified by reading on a spectrometer at 595 nm. Three replicates were run for each sample, the values were averaged and the error bars represent the standard deviation (±SD).
as §3

[3] = test system: P. aeruginosa PAO1; assay type: cell-based, Pseudomonas aeruginosa; details: Table 5; PAO1, 1x BM2; biofilms on pegs, cells plated and counted; three biological replicates
Experimental: as §4
Figure 5 The MBEC values for the peptides were assessed against P. aeruginosa PAO1 in the presence of 1× BM2 medium. The eradication of biofilm cells was determined for the peptides using the counting of biofilm cells formed by Pa PAO1. Three biological replicates were run for each test sample, and the mean was calculated for counted cell values. Data points with error bars indicate the standard deviation (±SD).
as §3

[4] = test system: S. aureus GFP; assay: MBEC, GFP fluorescence method; assay type: cell-based, Staphylococcus aureus; details: Table 4, Sa GFP, 10% TSB and 0.1% glucose, mean of three biological replicates
Experimental: as §1, with “3” for “1”, “Sa” for “Pa PAO1”, “Sa.” for “PAO1.”
as §3

[5] = test system: S. aureus GFP; assay type: cell-based, Staphylococcus aureus; details: Table 4; Sa GFP; lowest concentration of peptide with no bacterial growth seen on the spot agar plate
Source text: as §3

[6] = test system: S. aureus GFP; assay: MIC against planktonic cells, absorbance at 600 nm; assay type: cell-based, Staphylococcus aureus; details: Table 4; Sa GFP, 10% TSB and 0.1% glucose; absorbance 600 nm; mean of three biological replicates
Experimental: as §1, with “3” for “1”, “Sa” for “Pa PAO1”, “Sa.” for “PAO1.”
as §3

[7] = test system: P. aeruginosa PAO1 GFP; assay: MBIC, prevention of biofilm formation, GFP fluorescence method; assay type: cell-based, Pseudomonas aeruginosa
Experimental: as §1, §2, §3

[8] = test system: P. aeruginosa PAO1 GFP; assay: MIC against planktonic cells, absorbance at 600 nm; assay type: cell-based, Pseudomonas aeruginosa; details: absorbance 600 nm
Experimental: as §1, §2, §3

[9] = test system: S. aureus GFP; assay: MBIC, GFP fluorescence method; assay type: cell-based, Staphylococcus aureus; details: Table 4, Sa GFP, 10% TSB and 0.1% glucose, mean of three biological replicates
Experimental: as §1, with “3” for “1”, “Sa” for “Pa PAO1”, “Sa.” for “PAO1.”
as §3

[10] = test system: P. aeruginosa PAO1; assay type: cell-based, Pseudomonas aeruginosa; details: Table 6, Tritrp-Lys derivatives; PAO1, BM2; absorbance 600 nm; three replicates; unit not given
Experimental: as §5, §6, §3

[11] = Table 2, BM2 medium, mean of three biological replicates
[12] = Table 5, PAO1, 1x BM2, crystal violet at 595 nm, mean of three biological replicates
[13] = Table 5, minimum biofilm reduction concentration, PAO1, 1x BM2, crystal violet at 595 nm, mean of three biological replicates
[14] = Table 3, Tritrp-Lys derivatives, BM2 medium, three replicates
[15] = Table 6, Tritrp-Lys derivatives, PAO1, BM2, 0.1% crystal violet 15 min, released with 95% ethanol, 595 nm, three replicates, unit not given

Structure (SMILES)	MBEC at 488 and 530 nm LD50 [1, 11] [µmol/L]	MBEC at 488 and 530 nm LD90 [1, 11] [µmol/L]	MBEC at 488 and 530 nm LD50 [4] [µmol/L]	MBEC at 488 and 530 nm LD90 [4] [µmol/L]	MBC Agar Plate [5] [µM]	MIC at 600 nm LD50 [6] [µM]	MIC at 600 nm LD90 [6] [µM]	MBIC at 488 and 530 nm LD50 [7, 11] [µmol/L]	MBIC at 488 and 530 nm LD90 [7, 11] [µmol/L]	MIC at 600 nm LD50 [8, 11] [µM]	MIC at 600 nm LD90 [8, 11] [µM]	MBIC at 488 and 530 nm LD50 [9] [µmol/L]	MBIC at 488 and 530 nm LD90 [9] [µmol/L]	MBEC at 488 and 530 nm LD50 [1, 14] [µmol/L]	MBEC at 488 and 530 nm LD90 [1, 14] [µmol/L]	MBEC (CV at 595 nm) LD90 [2, 15]	MBIC (CV at 595 nm) LD90 [2, 15]	MIC at 600 nm LD50 [10]	MIC at 600 nm LD90 [10]	MBIC at 488 and 530 nm LD50 [7, 14] [µmol/L]	also measured
CC[C@H](C)[C@H](N)C(=O)N[C@@H](CC(C)C)C(=O)N1CCC[C@H]1C(=O)N[C@@H](Cc1c[nH]c2ccccc12)C(=O)N[C@@H](CCCCN)C(=O)N[C@@H](Cc1c[nH]c2ccccc12)C(=O)N1CCC[C@H]1C(=O)N[C@@H](Cc1c[nH]c2ccccc12)C(=O)N[C@@H](Cc1c[nH]c2ccccc12)C(=O)N1CCC[C@H]1C(=O)N[C@@H](Cc1c[nH]c2ccccc12)C(=O)N[C@@H](CCCNC(=N)N)C(=O)N[C@@H](CCCNC(=N)N)C(N)=O [Indolicidin, reference compound]	32	>128	2	8	8 (≈ 15.3 µg/mL)	4 (≈ 7.63 µg/mL)	8 (≈ 15.3 µg/mL)	8	32	8 (≈ 15.3 µg/mL)	32 (≈ 61 µg/mL)	4	8								MBIC (CV at 595 nm) LD50 [2, 12]: 32 µmol/L; MBIC (CV at 595 nm) LD90 [2, 12]: 32 µmol/L; MBRC (CV at 595 nm) LD50 [2, 13]: 64 µmol/L; MBRC (CV at 595 nm) LD90 [2, 13]: 64 µmol/L; MBEC from Calgary Biofilm Device (CBD) LD50 [3]: 128 µmol/L; MBEC from Calgary Biofilm Device (CBD) LD90 [3]: 128 µmol/L
N=C(N)NCCC[C@H](NC(=O)[C@H](CCCNC(=N)N)NC(=O)[C@@H](N)CCCNC(=N)N)C(=O)N[C@@H](Cc1c[nH]c2ccccc12)C(=O)N[C@@H](Cc1c[nH]c2ccccc12)C(=O)N[C@@H](Cc1c[nH]c2ccccc12)C(N)=O [RRRWWW-NH2] (H-RRRWWW-NH2)	64	>128	0.5	4	4 (≈ 4.18 µg/mL)	1 (≈ 1.04 µg/mL)	1 (≈ 1.04 µg/mL)	16	128	32 (≈ 33.4 µg/mL)	128 (≈ 134 µg/mL)	1	1								
N=C(N)NCCC[C@H](NC(=O)[C@H](Cc1c[nH]c2ccccc12)NC(=O)[C@H](Cc1c[nH]c2ccccc12)NC(=O)[C@H](Cc1c[nH]c2ccccc12)NC(=O)[C@H](CCCNC(=N)N)NC(=O)[C@@H](N)CCCNC(=N)N)C(N)=O [RRWWWR-NH2] (H-RRWWWR-NH2)	128	>128	1	4	4 (≈ 4.18 µg/mL)	1 (≈ 1.04 µg/mL)	1 (≈ 1.04 µg/mL)	16	128	64 (≈ 66.8 µg/mL)	128 (≈ 134 µg/mL)	1	1								
CC(C)C[C@H](NC(=O)[C@H](Cc1ccccc1)NC(=O)[C@@H]1CCCN1C(=O)[C@H](Cc1c[nH]c2ccccc12)NC(=O)[C@H](Cc1c[nH]c2ccccc12)NC(=O)[C@H](Cc1c[nH]c2ccccc12)NC(=O)[C@@H]1CCCN1C(=O)[C@H](Cc1ccccc1)NC(=O)[C@H](CCN)NC(=O)[C@H](CCN)NC(=O)[C@@H](N)C(C)C)C(=O)N[C@@H](CCN)C(=O)N[C@@H](CCN)C(N)=O [Tritrp-Dab] (H-V[Dab][Dab]FPWWWPFL[Dab][Dab]-NH2; N-terminus assumed)														16	64	64	16	16	16	8	MBIC at 488 and 530 nm LD90 [7, 14]: 16 µmol/L; MIC at 600 nm LD50 [8, 14]: 8 µM (≈ 13.4 µg/mL); MIC at 600 nm LD90 [8, 14]: 16 µM (≈ 26.8 µg/mL)
CC(C)C[C@H](NC(=O)[C@H](Cc1ccccc1)NC(=O)[C@@H]1CCCN1C(=O)[C@H](Cc1c[nH]c2ccccc12)NC(=O)[C@H](Cc1c[nH]c2ccccc12)NC(=O)[C@H](Cc1c[nH]c2ccccc12)NC(=O)[C@@H]1CCCN1C(=O)[C@H](Cc1ccccc1)NC(=O)[C@H](CCCN)NC(=O)[C@H](CCCN)NC(=O)[C@@H](N)C(C)C)C(=O)N[C@@H](CCCN)C(=O)N[C@@H](CCCN)C(N)=O [Tritrp-Orn] (H-V[Orn][Orn]FPWWWPFL[Orn][Orn]-NH2; N-terminus assumed)														64	128	128	32	16	16	16	MBIC at 488 and 530 nm LD90 [7, 14]: 16 µmol/L; MIC at 600 nm LD50 [8, 14]: 16 µM (≈ 27.7 µg/mL); MIC at 600 nm LD90 [8, 14]: 16 µM (≈ 27.7 µg/mL)
